How the values were obtained:
[1] = target: recombinant CpLDH protein (Cryptosporidium parvum, UniProt Q9GT92, F198L/K295E/R251K); assay: biochemical; assay type: biochemical
Method: Biochemical assays. The coding sequence of CpLDH was cloned from cDNA prepared from the AUCP-1 isolate of C. parvum, and the His-tagged CpLDH recombinant protein expressed in Escherichia coli, and purified in native form essentially as previously described (Int. J. Parasitol. 2017; 47(13), 867-874). Briefly, cDNA was prepared from total RNA extracted from the AUCP-1 isolate of C. parvum, and the coding sequencing of CpLDH (Genebank accession number AF274310.1) was PCR-amplified from the cDNA using a primer pair with a XhoI restriction site and a BamHI site. The PCR amplicon was cloned at the XhoI/BamHI site of the pET15b expression vector in-frame with the hexahistidine (His-tag) at the N-terminal and sequenced to confirm identity. The recombinant expression vector was transformed into protein expression E. coli BL21-CodonPlus-DE3-RIL (Stratagene). Transformed E. coli was cultured at 37° C. in Luria broth medium (supplemented with 100 μg/ml ampicillin and 34 μg/ml chloramphenicol) to an A600 of 0.8 followed by addition of 1 mM isopropyl-β-d-thiogalactopyranoside to induce protein expression. The expression E. coli was harvested and lysed under native conditions by sonicating in lysis buffer (50 mM NaH2PO4, 300 mM NaCl, 10 mM Imidazole, pH 8.0) containing a 1× EDTA-free protease inhibitor cocktail, 600 units benzonase and 30 kU lysozyme (EMD Millipore). The lysate was clarified by centrifugation and the His-tagged recombinant protein purified under native conditions by nickel-affinity chromatography according to the manufacturer's instructions (Novagen). The wash buffer used contained 50 mM NaH2PO4, 300 mM NaCl and 20 mM Imidazole, pH 8.0, while the elution buffer was composed of 50 mM NaH2PO4, 300 mM NaCl, 250 mM Imidazole, pH 8.0. The eluate was dialyzed using a buffer containing 5 mM Hepes-KOH (pH 7.8) and 0.5 mM DTT. The purity of the recombinant protein was determined by SDS/PAGE, and the concentration measured using a Qubit 3.0 fluorometer (Life technologies). […] On the other hand, the catalytic activity of CpLDH recombinant protein for the oxidation of lactate to pyruvate was determined by measuring the change in optical density of a 100 μl reaction mixture containing 100 mM lactate, 1 mM NAD^+, 100 mM Tris, pH 9.2, with varying concentrations of CpLDH recombinant protein at 25° C. […] In all assays, reaction mixtures without recombinant CpLDH protein were included as negative controls. All assays were performed in triplicate and repeated at least thrice. The change in optical density was measured every 15 seconds for a total of 2 minutes using a Spectra Max 384 Plus plate reader (Molecular Devices) at a wavelength of 340 nm.
Screening compounds for inhibitory activity against CpLDH. The chemical compounds were obtained from the National Cancer Institute/Developmental Therapeutics Program Open Chemical Repository. They consisted of a diverse set of compounds (n=27) reported previously (Int J Parasitol Drugs Drug Resist. 2016; 6(1), 44-53), and a Mechanistic Set IV compounds (n=800). The compounds were reconstituted in dimethyl sulfoxide (DMSO) as stock solutions. Just before use, aliquots of the stock solutions were diluted in sterile distilled water to generate working solutions, such that the final amount of DMSO added to the reaction mixtures was less than 1% (V/V). The compounds were tested for their inhibitory effect against the enzymatic activity of recombinant His-tagged CpLDH for catalyzing the reduction of pyruvate to lactate. […] Control reactions without recombinant CpLDH protein were included. Reactions were performed in triplicate and repeated at least thrice. The change in optical density was measured every 15 seconds for a total of 2 minutes using a Spectra Max 384 Plus plate reader (Molecular Devices) at a wavelength of 340 nm.

[2] = Tolerability in mice; assay type: in vivo; details: B6.129S7-Ifng (gamma interferon knockout), mouse, in vivo, po, 7 days
Method: In vivo testing of the anti-Cryptosporidium effect of CpLDH inhibitors. Gamma interferon knockout mice (B6.129S7-Ifng), 8 weeks of age, were purchased from Charles River, USA. The care and use of the mice was done following the guidelines of protocol number 17024 approved by the University of Illinois at Urbana-Champaign, USA. The animals were allowed to acclimatize for 1 week before experiments commenced. Stock solutions of recombinant CpLDH inhibitors reconstituted in DMSO were diluted in sterile distilled water to reduce the final amount of DMSO in the solution to less than 1% (v/v) before administering them to mice. Prior to testing the anti-Cryptosporidium effect of the inhibitors in mice, the tolerability of each inhibitor was tested by oral gavage using varying dosages (100-2000 mg/kg body weight) of each inhibitor in groups of mice (three mice for each dose) daily for 7 days. Mice were observed daily for signs of toxicity including changes from normal physical activity, respiration, body temperature, feeding, posture, fur condition or occurrence of death. […] An equivalent volume of PBS containing a cocktail of penicillin (100 units/ml), streptomycin (100 μg/ml), chloramphenicol (34 μg/ml) and amphotericin (0.25 μg/ml) was added to the fecal samples and stored at 4° C. until use for quantification of C. parvum genomic DNA load. […]

Chain of recombinant CpLDH protein (Q9GT92 whole entry F198L/K295E/R251K): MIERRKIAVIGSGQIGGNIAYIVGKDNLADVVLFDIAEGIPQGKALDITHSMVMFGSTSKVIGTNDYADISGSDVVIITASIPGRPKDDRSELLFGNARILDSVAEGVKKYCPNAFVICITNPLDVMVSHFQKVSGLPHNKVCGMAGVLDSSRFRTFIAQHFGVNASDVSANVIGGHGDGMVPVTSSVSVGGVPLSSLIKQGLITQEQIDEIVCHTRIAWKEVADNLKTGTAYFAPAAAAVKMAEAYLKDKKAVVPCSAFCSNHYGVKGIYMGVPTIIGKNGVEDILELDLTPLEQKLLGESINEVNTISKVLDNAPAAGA

With O=C1c2ccccc2C(=O)c2c(O)c(O)cc(O)c21 [NSC10447] the IC50 [1] was 46.3 µM, the “effect on catalytic activity of recombinant CpLDH” value ([1]; 20 μM compound, 10 mM pyruvate, 1 mM NADH) was “significant (P<0.05) inhibitory effect” and the “highest tolerable dose (no toxicity signs)” value [2] was 1000 mg/kg.

Source: patent US20250387359A1, “COMPOUNDS AND METHODS FOR THE TREATMENT OF PARASITIC INFECTIONS” (THE BOARD OF TRUSTEES OF THE UNIVERSITY OF ILLINOIS, priority 2019, published 2025)
